Assay results published in article PMC3302783, “Position of the Third Na^+ Site in the Aspartate Transporter GltPh and the Human Glutamate Transporter, EAAT1” (PLoS ONE, 2012).

Tests used:
EAAT1 = target: T1, EAAT1 (Homo sapiens, UniProt P43003); assay: Two-electrode voltage clamp of Xenopus laevis oocytes expressing wild type EAAT1; type: cell-based
T1 construct: expressed in transfected cells; host or cells: Xenopus laevis oocytes injected with cRNA
Description: (§1) All chemicals were obtained from Sigma unless otherwise stated. Stage V oocytes were harvested from Xenopus laevis as described previously.
(§2) NMDG^+ was used as a Na^+ substitute to maintain ionic strength of the buffers.
(§3) Substrate responses were fitted by least squares as a function of substrate concentration to I/Imax = [S]/([S]+K 0.5), where I is the current, Imax is the maximal current, K 0.5 is the concentration of substrate that generates half-maximal response, and [S] is the substrate concentration. Na^+ concentration responses were fit to the Hill equation I/Imax = [S]^n/([S]^n+(K 0.5)^n) where n is the Hill coefficient and all other terms are as described above. For ^3H-L-aspartate uptake by GltPh, initial rates were calculated from the linear portion of the curve and all data represent the mean ± s.e.m. of at least 3 experiments.

EAAT1 T130A = target: T2, EAAT1 T130A (Homo sapiens, UniProt P43003, T130A); assay: Two-electrode voltage clamp of Xenopus laevis oocytes expressing EAAT1 T130A; type: cell-based
T2 construct: expressed in transfected cells; host or cells: Xenopus laevis oocytes injected with cRNA
Description: as §1, §2, §3

EAAT1 T131A = target: T3, EAAT1 T131A (Homo sapiens, UniProt P43003, T131A); assay: Two-electrode voltage clamp of Xenopus laevis oocytes expressing EAAT1 T131A; type: cell-based
T3 construct: expressed in transfected cells; host or cells: Xenopus laevis oocytes injected with cRNA
Description: as §1, §2, §3

GltPh T92A [1] = target: T4, GltPh T92A (Pyrococcus horikoshii, UniProt O59010, T92A); assay: ^3H-L-aspartate uptake in proteoliposomes, GltPh T92A; type: biochemical
T4 construct: histidine tag (cleaved yes); made in house
Method: (§4) Pure protein was reconstituted into liposomes using a method modified from Gaillard et al., 1996 [37]. Escherichia coli polar lipids and 1-palmitoyl-2-oleoyl-sn-glycero-3-phosphocholine (Avanti Polar Lipids), at a ratio of 3∶1, were mixed, dried under nitrogen, and resuspended in internal buffer (100 mM KCl, 20 mM HEPES pH 7.5 or the appropriate internal buffer as indicated below). The lipid mixture was briefly sonicated using a cylindrical sonicator (Labatory Supplies Co.) and the lipid suspension was frozen in liquid nitrogen and thawed at 45°C several times. Liposomes were formed by extrusion through 400 nm polycarbonate membranes (Avanti Polar Lipids) and were treated with Triton X-100 at a 0.5∶1 (w/w) detergent to lipid ratio prior to the addition of protein at 0.25 µg protein/mg lipid. The protein/lipid mixture was left at room temperature for 30 minutes before detergent was removed using SM2 Biobeads (Biorad). The protein/lipid mixture was incubated, with gentle agitation, with three consecutive batches of the Biobeads (80 mg/ml). Proteoliposomes were concentrated by centrifugation at 150,000 g for 30 minutes in a Beckman Optima TLX centrifuge, resuspended at 100 mg lipid/mL and either used immediately or flash frozen in liquid nitrogen and stored at −80°C.
(§5) ^3H-L-aspartate transport by wild type GltPh and mutant GltPh transporters was assayed using a protocol modified from Gaillard et al., 1996 [37]. Proteoliposomes were loaded with internal buffer (100 mM KCl, 20 mM HEPES pH 7.5) by several freeze/thaw cycles followed by extrusion as described above. The uptake reaction was initiated by diluting the proteoliposomes (100 mg lipid/mL) 133 fold into reaction buffer pre-warmed to 30°C. The reaction buffer contained: 100 mM NaCl, 20 mM HEPES pH 7.5, 1 µM valinomycin and the indicated concentrations of ^3H-L-aspartate. […] The filters were washed once with 2 mL of ice cold quench buffer and assayed for radioactivity using a Trilux beta counter (Perkin Elmer). The Na^+ dependence of ^3H-L-aspartate transport was measured by varying extraliposomal Na^+ from 0.1 to 300 mM Na^+. […] Background levels of uptake were measured by diluting proteoliposomes into internal buffer (100 mM KCl, 20 mM HEPES pH 7.5) containing 1 µM valinomycin and the indicated concentrations of ^3H-L-aspartate.
(§6) Substrate responses were fitted by least squares as a function of substrate concentration to I/Imax = [S]/([S]+K 0.5), where I is the current, Imax is the maximal current, K 0.5 is the concentration of substrate that generates half-maximal response, and [S] is the substrate concentration. […] For ^3H-L-aspartate uptake by GltPh, initial rates were calculated from the linear portion of the curve and all data represent the mean ± s.e.m. of at least 3 experiments.

GltPh = system: GltPh; design: method as in PMID 17230192, PMID 19380583; details: initial functional studies of GltPh; ref [9], [11]; cited from earlier work
wild type GltPh = target: T5, wild type GltPh (Pyrococcus horikoshii, UniProt O59010); assay: ^3H-L-aspartate uptake in proteoliposomes, wild type GltPh; type: biochemical
T5 construct: histidine tag (cleaved yes); made in house
T5 sequence (O59010 1-425): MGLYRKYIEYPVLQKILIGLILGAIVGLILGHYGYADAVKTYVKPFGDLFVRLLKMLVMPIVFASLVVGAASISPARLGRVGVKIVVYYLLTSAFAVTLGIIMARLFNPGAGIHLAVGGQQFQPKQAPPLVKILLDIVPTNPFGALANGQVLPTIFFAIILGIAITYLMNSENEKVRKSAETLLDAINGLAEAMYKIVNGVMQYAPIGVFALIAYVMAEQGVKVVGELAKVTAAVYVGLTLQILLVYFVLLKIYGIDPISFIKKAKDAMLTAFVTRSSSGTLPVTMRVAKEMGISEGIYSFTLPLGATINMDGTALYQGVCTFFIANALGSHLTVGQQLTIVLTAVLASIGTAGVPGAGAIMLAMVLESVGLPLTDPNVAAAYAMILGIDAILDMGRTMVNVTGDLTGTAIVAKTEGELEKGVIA
Method: as §4, §5, §6

GltPh S93A [2] = target: T6, GltPh S93A (Pyrococcus horikoshii, UniProt O59010, S93A); assay: Binding free energy of Na^+ ions by thermodynamic integration (MD), GltPh S93A; details: GltPh S93A versus GltPh; from TI calculations
T6 construct: histidine tag (cleaved yes); made in house
Method: (§7) The simulation systems are prepared using the software VMD [28]. The crystal structure of the GltPh trimer is embedded in a 1-palmitoyl-2-oleoyl-phosphatidylethanolamine (POPE) phospholipid bilayer and solvated in a box of water molecules with physiological concentration of NaCl. The final system consists of the trimer, 239 lipid molecules, 15688 water molecules and 35 Na^+ and 35 Cl^− ions. GltPh has a net charge of +6e, so to keep the system neutral 6 Cl^− ions are added in the apo system (more Cl^− ions are added when the bound Na^+ ions are included to preserve neutrality). […]
(§8) The binding free energies of Na^+ ions are calculated using the expression, ΔGb = ΔGint+ΔGtr , where the first term gives the free energy difference for the interactions of the ion in the binding site and bulk (i.e. translocation energy) and the second term measures the free energy loss due to reduction in translational entropy upon binding. […] The interaction energy is calculated using both the free energy perturbation (FEP) and the thermodynamic integration (TI) methods, [35]. […] Otherwise the binding free energy of the ion is determined from the average of the forward and backward calculations. […]

GltPh S93A [3] = target: T6, GltPh S93A; assay: ^3H-L-aspartate uptake in proteoliposomes, GltPh S93A; type: biochemical
Method: as §4, §5, §6

GltPh T92A [4] = target: T4, GltPh T92A; assay: Binding free energy of Na^+ ions by thermodynamic integration (MD), GltPh T92A; details: GltPh T92A versus GltPh; from TI calculations
Method: as §7, §8

GltPh D312A = target: T7, GltPh D312A (Pyrococcus horikoshii, UniProt O59010, D312A); assay: ^3H-L-aspartate uptake in proteoliposomes, GltPh D312A; type: biochemical; details: 100 nM ^3H-L-aspartate, 100 mM NaCl
T7 construct: histidine tag (cleaved yes); made in house
Method: (§9) Pure protein was reconstituted into liposomes using a method modified from Gaillard et al., 1996 [37]. Escherichia coli polar lipids and 1-palmitoyl-2-oleoyl-sn-glycero-3-phosphocholine (Avanti Polar Lipids), at a ratio of 3∶1, were mixed, dried under nitrogen, and resuspended in internal buffer (100 mM KCl, 20 mM HEPES pH 7.5 or the appropriate internal buffer as indicated below). The lipid mixture was briefly sonicated using a cylindrical sonicator (Labatory Supplies Co.) and the lipid suspension was frozen in liquid nitrogen and thawed at 45°C several times. […]
(§10) ^3H-L-aspartate transport by wild type GltPh and mutant GltPh transporters was assayed using a protocol modified from Gaillard et al., 1996 [37]. […] The filters were washed once with 2 mL of ice cold quench buffer and assayed for radioactivity using a Trilux beta counter (Perkin Elmer). The Na^+ dependence of ^3H-L-aspartate transport was measured by varying extraliposomal Na^+ from 0.1 to 300 mM Na^+. […] Background levels of uptake were measured by diluting proteoliposomes into internal buffer (100 mM KCl, 20 mM HEPES pH 7.5) containing 1 µM valinomycin and the indicated concentrations of ^3H-L-aspartate. […]

GltPh N310A = target: T8, GltPh N310A (Pyrococcus horikoshii, UniProt O59010, N310A); assay: ^3H-L-aspartate uptake in proteoliposomes, GltPh N310A; type: biochemical; details: 100 nM ^3H-L-aspartate, 100 mM NaCl
T8 construct: histidine tag (cleaved yes); made in house
Method: as §9, §10

[5] = 100 µM L-glutamate, oocytes clamped at −60 mV
[6] = 100 nM ^3H-L-aspartate, Na^+ 0.1 to 300 mM
[7] = 100 mM Na^+, saturating substrate concentrations
[8] = ^3H-L-aspartate concentration-dependent transport, 100 mM NaCl

T1 sequence (P43003 whole entry): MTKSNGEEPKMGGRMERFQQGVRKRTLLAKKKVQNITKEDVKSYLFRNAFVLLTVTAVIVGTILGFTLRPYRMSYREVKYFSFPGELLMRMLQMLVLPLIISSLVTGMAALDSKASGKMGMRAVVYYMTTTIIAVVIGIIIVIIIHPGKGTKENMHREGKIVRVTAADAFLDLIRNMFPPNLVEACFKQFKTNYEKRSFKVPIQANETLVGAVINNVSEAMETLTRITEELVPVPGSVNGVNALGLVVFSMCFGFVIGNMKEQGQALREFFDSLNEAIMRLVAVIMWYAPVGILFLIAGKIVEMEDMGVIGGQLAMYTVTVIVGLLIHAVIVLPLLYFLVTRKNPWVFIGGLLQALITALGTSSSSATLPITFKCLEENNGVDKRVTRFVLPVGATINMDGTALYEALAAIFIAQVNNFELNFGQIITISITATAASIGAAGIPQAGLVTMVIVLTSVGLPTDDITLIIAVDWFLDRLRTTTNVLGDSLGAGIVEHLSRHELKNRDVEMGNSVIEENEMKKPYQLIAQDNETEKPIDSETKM
T2 sequence (P43003 whole entry T130A): as the sequence (P43003 whole entry) above, with T130A counted along it
T4 sequence (O59010 whole entry T92A): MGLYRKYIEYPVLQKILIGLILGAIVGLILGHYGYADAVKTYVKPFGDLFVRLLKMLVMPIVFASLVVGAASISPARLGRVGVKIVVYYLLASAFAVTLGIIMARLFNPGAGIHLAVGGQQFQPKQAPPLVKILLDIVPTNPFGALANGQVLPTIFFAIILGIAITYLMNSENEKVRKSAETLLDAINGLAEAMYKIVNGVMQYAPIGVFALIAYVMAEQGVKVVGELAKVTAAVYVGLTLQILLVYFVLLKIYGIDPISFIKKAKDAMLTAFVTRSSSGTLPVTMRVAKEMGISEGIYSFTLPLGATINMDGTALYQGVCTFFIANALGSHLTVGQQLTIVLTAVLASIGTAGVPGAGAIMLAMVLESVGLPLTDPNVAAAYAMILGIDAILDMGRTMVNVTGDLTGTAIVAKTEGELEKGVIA
T3 sequence (P43003 whole entry T131A): as the sequence (P43003 whole entry) above, with T131A counted along it
T6 sequence (O59010 whole entry S93A): as the sequence (O59010 whole entry T92A) above, with A92T, S93A counted along it
T7 sequence (O59010 whole entry D312A): as the sequence (O59010 whole entry T92A) above, with A92T, D312A counted along it
T8 sequence (O59010 whole entry N310A): as the sequence (O59010 whole entry T92A) above, with A92T, N310A counted along it

## N[C@@H](CCC(=O)O)C(=O)O [L-glutamate]
EAAT1; [5]
  current elicited by L-glutamate: 395±20 nA
EAAT1; oocytes clamped at −60 mV
  K 0.5 for L-glutamate transport: 15 ± 1 µM
EAAT1 T130A; [5]
  current elicited by L-glutamate: 21±2 nA
EAAT1 T130A; oocytes clamped at −60 mV
  K 0.5 for L-glutamate transport: 87 ± 3 µM
EAAT1 T131A; [5]
  current elicited by L-glutamate: 25±2 nA
EAAT1 T131A; oocytes clamped at −60 mV
  K 0.5 for L-glutamate transport: 124 ± 11 µM

## [Na+] [Na^+]
EAAT1; 300 µM L-glutamate
  Hill coefficient of Na^+ dependence of L-glutamate transport: 2.8±0.4
EAAT1; 300 µM L-glutamate, Na^+ 1 to 150 mM
  K 0.5 for Na^+ dependence of L-glutamate transport: 28 ± 4 mM
GltPh T92A [1]; 100 nM ^3H-L-aspartate
  Hill coefficient of Na^+ dependence of aspartate transport: 2.1±0.2
GltPh T92A [1]; [6]
  K 0.5 for Na^+ dependence of aspartate transport: 19 ± 1 mM
EAAT1 T130A; 1 mM L-glutamate, 150 mM Na^+
  Na^+ dependence of L-glutamate transport: saturation at highest Na^+ concentration: not saturating
GltPh
  Hill coefficient (Na^+ ions co-transported with substrate): > 2
Wild type GltPh; 100 nM ^3H-L-aspartate
  Hill coefficient of Na^+ dependence of aspartate transport: 2.3±0.5
Wild type GltPh; [6]
  K 0.5 for Na^+ dependence of aspartate transport: 3.9 ± 0.4 mM
EAAT1 T131A; 1 mM L-glutamate, 150 mM Na^+
  Na^+ dependence of L-glutamate transport: saturation at highest Na^+ concentration: not saturating
GltPh S93A [2]
  reduction of the binding free energy of Na3 by the mutation: 5.9 kcal/mol
GltPh S93A [3]; 500 nM ^3H-L-aspartate
  Hill coefficient of Na^+ dependence of aspartate transport: 1.9±0.2
GltPh S93A [3]; 500 nM ^3H-L-aspartate, Na^+ 0.1 to 300 mM
  K 0.5 for Na^+ dependence of aspartate transport: 44 ± 2 mM
GltPh T92A [4]
  reduction of the binding free energy of Na3 by the mutation: 7.5 kcal/mol

## N[C@@H](CC(=O)O)C(=O)O [aspartate]
GltPh T92A [1]; [7]
  maximal velocity of ^3H-L-aspartate transport: 42±1 nmol/mg protein/min
GltPh T92A [1]; [8]
  K 0.5 for aspartate transport: 61 ± 10 nM
Wild type GltPh; [7]
  maximal velocity of ^3H-L-aspartate transport: 7.5±0.5 nmol/mg protein/min
Wild type GltPh; [8]
  K 0.5 for aspartate transport: 100 ± 10 nM
GltPh D312A
  ^3H-L-aspartate uptake versus background: did not exhibit ^3H-L-aspartate uptake over background levels
GltPh N310A
  ^3H-L-aspartate uptake versus background: did not exhibit ^3H-L-aspartate uptake over background levels
GltPh S93A [3]; [7]
  maximal velocity of ^3H-L-aspartate transport: 58±3 nmol/mg protein/min
GltPh S93A [3]; [8]
  K 0.5 for aspartate transport: 370 ± 60 nM
